Key:
[1] = tested on: MyoD and Myf5 protein expression in C2C12 cells; assay: Expression of MyoD and Myf5 (Western immunoblot) in C2C12 cells; assay type: cell-based, Murine; conditions: for expression of Myf5 compared with DMSO control, dose dependence: 5 and 10 μM; for Myf-5 expression on co-treatment with Wnt1 conditioned medium: co-treated with Wnt1
Description: (§1) a. Cell culture: Murine C2C12 myoblastic cell line (satellite cells from thigh muscle) purchased from American Tissue Type Collection (ATCC) was maintained in exponential phase of growth using 10% FBS/DMEM with Glutamax designed as GM (growth medium) supplied with antibiotic solution (Penicillin and Streptomycin) in a controlled humidified air atmosphere supplied with 5% CO2, at 37° C. in a multiwell or tissue culture Petri dishes (Corning-Costar Inc U.S.A.).
(§2) b. Induction of differentiation and test compound treatment: Every other day the cells were washed twice with phosphate buffered saline (PBS) and medium was changed until they reached 100% confluence. Confluent cells (myoblasts of the same cell density fully covering surface dish) were then guided to post mitotic status, and differentiation and fusion were initiated by replacing GM with 2% (v/v) horse serum HS/DMEM designed as DM (differentiating medium). In the above mentioned conditions C2C12 myoblasts easily and fully differentiate into myotubes, therefore we could follow up modifications of differentiation process during 5 subsequent days. During the study freshly prepared media without or with the experimental factors were changed every 24 hours. Test compounds were dissolved in DMSO and diluted with culture medium. Test compounds (if not specified, 10 μM was used, final DMSO 0.1% v/v) or DMSO (0.1% v/v) were added to the medium.
c. Expression of MyoD and Myf5: Cells were lysed and protein expression levels were analyzed by Western-immunoblot analysis, as described in the literature (Verma et al., British J Pharmacol, 2004, 143, 106-13). Equal amount of protein samples were resolved by sodium dodecyl sulphate poly-acrylamide gel electrophoresis (SDS-PAGE) and transferred to nitrocellulose membranes. The membranes were blocked with 5% bovine serum albumin (BSA) and incubated with the indicated primary antibodies for 12˜h: polyclonal C20 antion MyoD (from Santa-Cruz, Biotechnology, Santa Cruz, Calif.) diluted 1/400, polyclonal anti-Myf-5 directed against the COOH-terminal portion of the protein. After several washes in PBS, membranes were incubated with chemiluminescence reagents.

[2] = tested on: human bone marrow derived-mesenchymal stem cells (hBMMSC); assay: Osteogenesis modulating activity assay by test compound alone (ALP activity); assay type: cell-based
Method in brief: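 hBMMSC from normal subjects were treated with compound at 20 μM final (0.01% DMSO) at 37° C, 5% CO2, with medium and compound renewed every two days. Alkaline phosphatase activity in cell lysates was measured colorimetrically after six to seven days.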

[3] = tested on: β-catenin/TCF transcription; assay: TopFlash reporter gene assay in SW480 cells; assay type: cell-based; conditions: Homo sapiens; SW480 cells transfected with β-catenin/TCF luciferase construct; 24 hours treatment; dual luciferase assay; read-out: IC50, inhibition of β-catenin/TCF reporter gene construct
Description: FIG. 2. Compound A (Serial No. 111 in Table 2) inhibits β-catenin/TCF transcription. […] SW480 cells (10^5) were transfected with β-catenin/TCF luciferase construct. Cells were treated with Compound A (1-50 μM). 24 hours after the treatment lysates were prepared and subjected to dual luciferase assay.
FIG. 3. Compound B (Serial No. 10 in Table 2) inhibits β-catenin/TCF transcription. […] SW480 cells ([…]) were transfected with β-catenin/TCF luciferase construct. Cells were treated with Compound B (1-50 μM). 24 hours after treatment lysates were prepared and subjected to dual luciferase assay.
SW480 cells were transfected using Superfect™ transfection reagent (Qiagen, 301307). Cells were trypsinized briefly 1 day before transfection and plated on 6 well plate (5×10^5 cells/well) so that they were 50-80% confluent on the day of transfection.
Four microgram (TOPFlash) and one microgram (pRL-null) of DNAs were diluted in […] of serum-free medium, and 30 μl of Superfect™ transfection reagent was added. The DNA-Superfect mixture was incubated at room temperature for 15 min, and then, 1 ml of 10% FBS DMEM was added to this complex for an additional 3 hours of incubation. While complexes were forming, cells were washed with PBS twice without antibiotics.
The DNA-Superfect™ transfection reagent complexes were applied to the cells before incubating at 37° C. at 5% CO2 for 3 hours. […]

[4] = tested on: Mouse embryonic stem (ES) cells, TC1; assay: Cardiomyogenesis modulating activity assay (alpha-MHC promoter EGFP, embryoid bodies, FACS/fluorescence microscopy); assay type: cell-based; conditions: for Cardiomyogenesis: fold change of EGFP expression level compared with DMSO control: embryoid bodies treated for 5 days, FACS
Method in brief: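 Mouse TC1 ES cells carrying an alpha-MHC promoter-EGFP reporter were formed into embryoid bodies (~600 cells, 2 days hanging drop, 2 days suspension), plated, then exposed to compounds (final 0.05% DMSO) for 5 days. Cardiomyogenesis assessed by EGFP via FACS after trypsin dissociation, fluorescence microscopy, and daily counts of beating EBs.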

[5] = tested on: human bone marrow derived-mesenchymal stem cells (hBMMSC); assay: Osteogenesis modulating activity with osteogenic induction cocktails (ALP activity, mineralization); assay type: cell-based; conditions: 20 μM, co-treated with osteogenic induction cocktails
Description: Cell culture: Human bone marrow derived-mesenchymal stem cells (hBMMSC) were isolated from normal subjects.
Osteogenesis modulating activity of test compounds with induction media: hBMMSC were culture with culture media containing osteogenic induction cocktails (OIC, 0.1 μM dexamethasone, 50 μM ascorbate-2-phosphate, 10 mM b-glycerophosphate). Four to five days after incubation, Alkaline phosphatase (ALP) activity of cell lysates were measured by colorimetry. For the determination of mineralization within the cells, Von Kossa staining or Alizarin Red S assay was performed 10-14 days after incubation.

hBMMSC = assay: Cell proliferation assay (CellTiter 96) in hBMMSC; assay type: cell-based, human; conditions: Homo sapiens, treated alone, read-out: cell proliferation inhibited
Description: Cell proliferation assay: To investigate the cytotoxicity of the test compounds for hBMMSC, hBMMSC were exposed to the test compounds for 6-7 days at the same condition above (method b and c). Cell proliferation was assessed using CellTiter 96 Aqueous One Solution (Promega, #G3581). Absorbance at 490 nm of each well was determined with a microplate reader (Molecular Device) and % growth inhibition was calculated compared with control.

C2C12 myoblasts = assay: Myogenesis (myotube formation) in C2C12 myoblast cells; assay type: cell-based, Murine; conditions: C2C12 cells grown in GM
Description: as §1
as §2, with “Confluent cells (myoblasts of the same cell density fully covering surface dish) were then guided to post mitotic status, and differentiation and fusion were initiated by replacing GM with 2% (v/v) horse serum HS/DMEM designed as DM (differentiating medium).” left out

Compound | Myf-5 expression, compound without Wnt1 [1] | expression of Myf5 compared with DMSO control, dose dependence [1] | Myf-5 expression on co-treatment with Wnt1 conditioned medium [1] | Myf5 expression on co-treatment of CBP ([1]; co-treatment of CBP) | Myf5 expression on co-treatment of p300 ([1]; co-treatment of p300) | cellular alkaline phosphatase activity ([2]; 20 μM, hBMMSC) | ALP level reduced ([2]; 20 μM, treated alone to hBMMSC) [%] | fold induction at 20 µM ([2]; Homo sapiens, 168 h, hBMMSC, 20 μM test compound alone, six to seven days, read-out: Osteogenesis: fold change of ALP activity compared with DMSO control) | IC50 [3] [µM] | expression of fluorescence, ratio Compound : DMSO control (control = 1) ([4]; 10 μM for 5 days, mouse embryonic stem cells) | Cardiomyogenesis: fold change of EGFP expression level compared with DMSO control [4] [fold] | ALP level reduced compared with vehicle control group [5] [%] | inhibition at 20 µM (hBMMSC) [%] | Myf5 protein expression level [1] | MyoD protein expression level [1] | myotube formation in growth medium (GM) (C2C12 myoblasts)
CN(C)c1c(Cl)cccc1CN1C[C@H]2N(C(=O)CN(C)N2C(=O)NCc2ccccc2)[C@@H](Cc2ccc(O)cc2)C1=O [#10] | reduced | dose-dependently decreased | abolished Myf-5 enhancing activity of Wnt1 | not changed | rescues the decrease of Myf5 expression | strongly inhibited | 77 | 0.23 | 6.98 | 0.26 | 0.26 | 80 | 51 | – | – | –
O=C1[C@@H](Cc2ccc(O)cc2)N2C(=S)CCN(C(=O)NCc3ccccc3)[C@@H]2CN1Cc1cccc2ccccc12 [#112] | – | dose-dependently increased | further enhanced | – | – | – | – | – | – | – | 0.95 | – | – | significantly increased | significantly increased | extensive myotube formation
